Measurements published in the NIST ThermoML archive (doi:10.1016/j.jct.2008.12.010).

Test: xn = mol fraction of the nth substance listed
Conditions: for speed of sound / mass density: Liquid; for speed of sound: Linear variable-path acoustic interferometer; for mass density: Vibrating tube method; for surface tension liquid-gas: Drop volume

CCOC(=O)OCC [diethyl carbonate] + Cc1ccc(C)cc1
Conditions	mass density [kg/m3]	speed of sound [m/s]	surface tension liquid-gas [mN/m]
288.15 K, x1 = 0.0509	871.12	1343.5	–
288.15 K, x1 = 0.0985	876.57	1336.8	–
288.15 K, x1 = 0.1975	887.94	1322.8	–
288.15 K, x1 = 0.2974	899.4	1308.7	–
288.15 K, x1 = 0.3983	910.97	1294.6	–
288.15 K, x1 = 0.5023	922.91	1280.2	–
288.15 K, x1 = 0.5485	928.22	1274	–
288.15 K, x1 = 0.5968	933.78	1267.5	–
288.15 K, x1 = 0.6464	939.5	1261	–
288.15 K, x1 = 0.6992	945.6	1254.2	–
288.15 K, x1 = 0.7976	956.98	1241.8	–
288.15 K, x1 = 0.8515	963.21	1235.1	–
288.15 K, x1 = 0.9	968.83	1229.4	–
288.15 K, x1 = 0.9507	974.69	1223.5	–
293.15 K, x1 = 0.04951	866.58	1322.7	–
293.15 K, x1 = 0.09841	872.13	1315.9	–
293.15 K, x1 = 0.2007	883.74	1301.6	–
293.15 K, x1 = 0.3004	895.04	1287.6	–
293.15 K, x1 = 0.4017	906.52	1273.5	–
293.15 K, x1 = 0.4997	917.64	1260	–
293.15 K, x1 = 0.5976	928.79	1246.8	–
293.15 K, x1 = 0.65	934.76	1239.9	–
293.15 K, x1 = 0.6999	940.46	1233.4	–
293.15 K, x1 = 0.7969	951.55	1221.2	–
293.15 K, x1 = 0.8522	957.87	1214.5	–
293.15 K, x1 = 0.9516	969.28	1203.1	–
298.15 K, x1 = 0.05081	862.33	1301.4	–
298.15 K, x1 = 0.05201	–	–	27.27
298.15 K, x1 = 0.09983	–	–	27.12
298.15 K, x1 = 0.1564	874.2	1286.7	–
298.15 K, x1 = 0.2023	–	–	26.85
298.15 K, x1 = 0.2581	885.6	1272.5	–
298.15 K, x1 = 0.3052	890.87	1265.9	–
298.15 K, x1 = 0.3063	–	–	26.61
298.15 K, x1 = 0.4021	901.73	1252.4	–
298.15 K, x1 = 0.4043	–	–	26.39
298.15 K, x1 = 0.4446	–	–	26.31
298.15 K, x1 = 0.4941	912.05	1239.7	–
298.15 K, x1 = 0.5014	912.87	1238.7	–
298.15 K, x1 = 0.5042	–	–	26.19
298.15 K, x1 = 0.5936	–	–	26.01
298.15 K, x1 = 0.5966	923.58	1226	–
298.15 K, x1 = 0.6896	934.06	1213.8	–
298.15 K, x1 = 0.7041	–	–	25.8
298.15 K, x1 = 0.7459	940.42	1206.7	–
298.15 K, x1 = 0.7994	–	–	25.65
298.15 K, x1 = 0.8968	–	–	25.52
298.15 K, x1 = 0.8987	957.7	1188.4	–
298.15 K, x1 = 0.9492	963.41	1182.6	–
303.15 K, x1 = 0.05001	857.79	1280.6	–
303.15 K, x1 = 0.09883	863.2	1274	–
303.15 K, x1 = 0.1971	874.11	1260.3	–
303.15 K, x1 = 0.3068	886.26	1245	–
303.15 K, x1 = 0.3908	895.57	1233.2	–
303.15 K, x1 = 0.499	907.57	1218.4	–
303.15 K, x1 = 0.5482	913.03	1211.7	–
303.15 K, x1 = 0.6011	918.91	1204.7	–
303.15 K, x1 = 0.6472	924.05	1198.6	–
303.15 K, x1 = 0.6979	929.7	1192.1	–
303.15 K, x1 = 0.7962	940.68	1179.8	–
303.15 K, x1 = 0.9007	952.41	1167.4	–
303.15 K, x1 = 0.951	958.07	1161.6	–
308.15 K, x1 = 0.09736	858.51	1253.3	–
308.15 K, x1 = 0.2045	870.25	1238.5	–
308.15 K, x1 = 0.2963	880.29	1225.7	–
308.15 K, x1 = 0.4046	892.15	1210.4	–
308.15 K, x1 = 0.4955	902.1	1197.8	–
308.15 K, x1 = 0.5478	907.85	1190.9	–
308.15 K, x1 = 0.6058	914.21	1183.1	–
308.15 K, x1 = 0.657	919.84	1176.5	–
308.15 K, x1 = 0.6936	923.87	1171.9	–
308.15 K, x1 = 0.7468	929.74	1165.2	–
308.15 K, x1 = 0.8022	935.86	1158.4	–
308.15 K, x1 = 0.9035	947.12	1146.5	–
